{"source": "PubChem BioAssay AID1918952", "about": "(Molecular Pharmacology Branch, DTP, NCI, 2023)", "test_system": "LG0703-F948-PDC complex spheroid viability", "experiment": "Anticancer human tumor LG0703-F948-PDC patient-derived lung adenocarcinoma cell line growth inhibition", "conditions": "for viability, T/C: stronger effect = lower value", "from_the_text": "Multicellular complex tumor spheroid response to LSD1 Inhibitor Iadademstat in combination with a variety of drugs and investigational agents in selected tumor cell lines\nThe current study was undertaken to assess response to LSD1 inhibitors in combination with standard-of-care drugs and investigational agents in solid tumor complex spheroid models as well as in the K-562 leukemia. Complex spheroids include a stromal component modeled by human endothelial cells (HUVEC) and fibroblasts modeled by human mesenchymal stem cells (MSCs). The concentration ranges selected for each drug and investigational agent were based upon clinically achievable concentrations if the clinical Cmax of the agent was known.\nCompounds. The drugs and investigational agents used in this study are listed on Table 1. All of the agents used, including staurosporine (NSC755774) and gemcitabine (NSC613327), were obtained from the Developmental Therapeutics Program, NCI. FDA-approved anticancer drugs are available from the NCI at http://dtp.nci.nih.gov/branches/dscb/oncology_drugset_explanation.html. Drugs and investigational agents were >95% pure by proton nuclear magnetic resonance (NMR) and liquid chromatography/mass spectrometry (LC/MS). Stock solutions were prepared at 400x in DMSO, stored at -70 degrees C, and diluted in fresh medium prior to their use. The final concentration of DMSO in cell culture wells never exceeded 0.25% (v/v). The FDA-approved anticancer drug set is available from the Developmental Therapeutics Program at https://dtp.cancer.gov/organization/dscb/obtaining/available_plates.htm. All drugs and investigational agents were tested over a range starting from a high concentration at or near the clinical Cmax and decreasing in half-log increments. If the clinical Cmax for an agent had not been determined, the highest concentration tested was 10 microM.\nCell Lines. The patient-derived cancer cell (PDC) lines: 292921-168-R-J2-PDC, K24384-001-R-PDC, and 521955-158-R2-J5-PDC pancreatic carcinomas, 556581-035-R-J1 ovarian carcinoma, 324938-238-R-J1-PDC, 855422-203-R-J1-PDC and 883617-216-R-J1-PDC urothelial bladder carcinomas, 743489-274-T-PDC renal cell carcinoma, 138582-R-J1 Merkel cell tumor, K60290-347-R-J1 and K57222-313-R-J1-PDC glioblastomas, 653999-131-R-J2-PDC, LG0703-F948-PDC, and 349418-098-R-PDC non-small cell lung carcinomas, 885512-296-R-J2-PDC, 171881-019-R-J1-PDC breast carcinomas and 186277-243-T-J2-PDC and 233499-124-R-J2-PDC colon carcinomas were obtained from the NCI Patient-Derived Models Repository (PDMR, https://pdmr.cancer.gov). The established cell lines NCI/ADR-RES (RRID:CVCL_14520 and OVCAR-5 (RRID:CVCL_1628) ovarian carcinomas, 786-O (RRID:CVCL_1051) and A498 (RRID:CVCL_A498) renal cell carcinoma, NCI-H211 (ATCC, cat. CRL-5824; RRID:CVCL_1529), NCI-H196 (ATCC, cat. CRL-5823, RRID:CVCL_1509), SW 1271 (ATCC, cat. CRL-2177, RRID:CVCL_1716) and NCI-H1876 (ATCC, cat. CRL-5902, RRID:CVCL_1503) small cell lung carcinomas, MDA-MB-231 (RRID:CVCL_0062) and MDA-MB-468 (RRID:CVCL_0419)breast carcinomas (10-12). Pooled donor human umbilical vein endothelial cells (HUVEC, Lonza, cat. CC-2519) and human mesenchymal stem cells (hMSC, Lonza, cat. PT-2501) were purchased from Lonza (Walkersville, MD).\nCell Culture. All cells were maintained in an incubator at 37 degrees C and 5% CO2 with 95% humidity. The PDC lines were cultured according to standard operating procedures established by the NCI PDMR (https://pdmr.cancer.gov). Briefly all PDCs were thawed and cultured in Matrigel-coated flasks prepared with a working solution of 1X Ham's F-12 nutrient mix, without supplementation (Invitrogen, Waltham, MA, cat. 11765054), 100 U/mL penicillin-streptomycin (Invitrogen, cat. 15140122), and 2.5% Matrigel (Corning Inc., Corning, NY, cat. 354248) for the first three passages. […]", "note": "“And” between values parts separate entries of the source, which are not always exact repeats. Equal entries are not always repeated.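 Also: spheroids exposed to agents for seven days before readout.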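 For viability, T/C in this document: 100% = DMSO vehicle control wells as normalization base.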", "data": [{"smiles": "Nc1ncn(C2CC(O)C(CO)S2)c(=O)n1", "note": "(stereo unspecified)", "values": [{"measurement": "viability, T/C", "setting": "compound 0.000949 µM", "value": "91.3% and 115%"}, {"measurement": "viability, T/C", "setting": "compound 0.003 µM", "value": "118% and 98.8%"}, {"measurement": "viability, T/C", "setting": "compound 0.00949 µM", "value": "95.8% and 96.4%"}, {"measurement": "viability, T/C", "setting": "compound 0.03 µM", "value": "112% and 99.8%"}, {"measurement": "viability, T/C", "setting": "compound 0.0949 µM", "value": "111% and 96.1%"}, {"measurement": "viability, T/C", "setting": "compound 0.3 µM", "value": "84.7% and 78.1%"}, {"measurement": "IC50", "setting": "curve of compound", "value": "> 300", "unit": "nM"}]}, {"smiles": "CCN(c1cc(-c2ccc(CN3CCOCC3)cc2)cc(C(=O)NCc2c(C)cc(C)[nH]c2=O)c1C)C1CCOCC1", "values": [{"measurement": "viability, T/C", "setting": "compound 0.00949 µM", "value": "119% and 92.8%"}, {"measurement": "viability, T/C", "setting": "compound 0.03 µM", "value": "97.8% and 90.4%"}, {"measurement": "viability, T/C", "setting": "compound 0.0949 µM", "value": "101% and 97.6%"}, {"measurement": "viability, T/C", "setting": "compound 0.3 µM", "value": "101% and 90.8%"}, {"measurement": "viability, T/C", "setting": "compound 0.949 µM", "value": "105% and 96%"}, {"measurement": "viability, T/C", "setting": "compound 3 µM", "value": "102% and 96.7%"}, {"measurement": "IC50", "setting": "curve of compound", "value": "> 3000", "unit": "nM"}]}, {"smiles": "CC1(C)CCC(CN2CCN(c3ccc(C(=O)NS(=O)(=O)c4ccc(NCC5CCOCC5)c([N+](=O)[O-])c4)c(Oc4cnc5[nH]ccc5c4)c3)CC2)=C(c2ccc(Cl)cc2)C1", "values": [{"measurement": "viability, T/C", "setting": "compound 0.0316 µM", "value": "87% and 94.2%"}, {"measurement": "viability, T/C", "setting": "compound 0.1 µM", "value": "98.5% and 93.8%"}, {"measurement": "viability, T/C", "setting": "compound 0.316 µM", "value": "91.7% and 89.7%"}, {"measurement": "viability, T/C", "setting": "compound 1 µM", "value": "96.8% and 84.2%"}, {"measurement": "viability, T/C", "setting": "compound 3.16 µM", "value": "36.5% and 50.3%"}, {"measurement": "viability, T/C", "setting": "compound 10 µM", "value": "3.78% and 4.3%"}, {"measurement": "IC50", "setting": "curve of compound", "value": "2410 nM and 3200 nM"}]}, {"smiles": "CC(C)CC(NC(=O)C(Cc1ccccc1)NC(=O)c1cnccn1)B(O)O", "note": "(stereo unspecified) + NC1CCC(NC2CC2c2ccccc2)CC1", "values": [{"measurement": "IC50", "setting": "curve of first compound, second compound 0.1 µM", "value": "< 0.316", "unit": "nM"}, {"measurement": "IC50", "setting": "curve of first compound, second compound 0.316 µM", "value": "< 0.316", "unit": "nM"}, {"measurement": "IC50", "setting": "curve of first compound, second compound 1 µM", "value": "< 0.316", "unit": "nM"}, {"measurement": "IC50", "setting": "curve of first compound, second compound 3.16 µM", "value": "< 0.316", "unit": "nM"}, {"measurement": "IC50", "setting": "curve of first compound, second compound 10 µM", "value": "< 0.316", "unit": "nM"}, {"measurement": "viability, T/C", "setting": "second compound 0.1 µM, first compound 0.000316 µM", "value": 8.14, "unit": "%"}, {"measurement": "viability, T/C", "setting": "second compound 0.1 µM, first compound 0.001 µM", "value": 0.63, "unit": "%"}, {"measurement": "viability, T/C", "setting": "second compound 0.1 µM, first compound 0.00316 µM", "value": 0.43, "unit": "%"}, {"measurement": "viability, T/C", "setting": "second compound 0.1 µM, first compound 0.01 µM", "value": 0.05, "unit": "%"}, {"measurement": "viability, T/C", "setting": "second compound 0.1 µM, first compound 0.0316 µM", "value": 0.04, "unit": "%"}, {"measurement": "viability, T/C", "setting": "second compound 0.1 µM, first compound 0.1 µM", "value": 0.13, "unit": "%"}, {"measurement": "viability, T/C", "setting": "second compound 0.316 µM, first compound 0.000316 µM", "value": 8.59, "unit": "%"}, {"measurement": "viability, T/C", "setting": "second compound 0.316 µM, first compound 0.001 µM", "value": 1.33, "unit": "%"}, {"measurement": "viability, T/C", "setting": "second compound 0.316 µM, first compound 0.00316 µM", "value": 0.03, "unit": "%"}, {"measurement": "viability, T/C", "setting": "second compound 0.316 µM, first compound 0.01 µM", "value": 0.82, "unit": "%"}, {"measurement": "viability, T/C", "setting": "second compound 0.316 µM, first compound 0.0316 µM", "value": 0.07, "unit": "%"}, {"measurement": "viability, T/C", "setting": "second compound 0.316 µM, first compound 0.1 µM", "value": 0.11, "unit": "%"}, {"measurement": "viability, T/C", "setting": "second compound 1 µM, first compound 0.000316 µM", "value": 7.45, "unit": "%"}, {"measurement": "viability, T/C", "setting": "second compound 1 µM, first compound 0.001 µM", "value": 0.3, "unit": "%"}, {"measurement": "viability, T/C", "setting": "second compound 1 µM, first compound 0.00316 µM", "value": 0.12, "unit": "%"}, {"measurement": "viability, T/C", "setting": "second compound 1 µM, first compound 0.01 µM", "value": 0.06, "unit": "%"}, {"measurement": "viability, T/C", "setting": "second compound 1 µM, first compound 0.0316 µM", "value": 0.02, "unit": "%"}, {"measurement": "viability, T/C", "setting": "second compound 1 µM, first compound 0.1 µM", "value": 0.1, "unit": "%"}, {"measurement": "viability, T/C", "setting": "second compound 3.16 µM, first compound 0.000316 µM", "value": 5.46, "unit": "%"}, {"measurement": "viability, T/C", "setting": "second compound 3.16 µM, first compound 0.001 µM", "value": 0.14, "unit": "%"}, {"measurement": "viability, T/C", "setting": "second compound 3.16 µM, first compound 0.00316 µM", "value": 0.04, "unit": "%"}, {"measurement": "viability, T/C", "setting": "second compound 3.16 µM, first compound 0.01 µM", "value": 0.1, "unit": "%"}, {"measurement": "viability, T/C", "setting": "second compound 3.16 µM, first compound 0.0316 µM", "value": 0.03, "unit": "%"}, {"measurement": "viability, T/C", "setting": "second compound 3.16 µM, first compound 0.1 µM", "value": 0.12, "unit": "%"}, {"measurement": "viability, T/C", "setting": "second compound 10 µM, first compound 0.000316 µM", "value": 1.9, "unit": "%"}, {"measurement": "viability, T/C", "setting": "second compound 10 µM, first compound 0.001 µM", "value": 0.49, "unit": "%"}, {"measurement": "viability, T/C", "setting": "second compound 10 µM, first compound 0.00316 µM", "value": 0.29, "unit": "%"}, {"measurement": "viability, T/C", "setting": "second compound 10 µM, first compound 0.01 µM", "value": 0.18, "unit": "%"}, {"measurement": "viability, T/C", "setting": "second compound 10 µM, first compound 0.0316 µM", "value": 0.13, "unit": "%"}, {"measurement": "viability, T/C", "setting": "second compound 10 µM, first compound 0.1 µM", "value": 0.25, "unit": "%"}]}, {"smiles": "O=C(C=Cc1cccc(S(=O)(=O)Nc2ccccc2)c1)NO", "values": [{"measurement": "viability, T/C", "setting": "compound 0.00949 µM", "value": "94.2% and 95.1%"}, {"measurement": "viability, T/C", "setting": "compound 0.03 µM", "value": "90.9% and 90.4%"}, {"measurement": "viability, T/C", "setting": "compound 0.0949 µM", "value": "43.7% and 43.1%"}, {"measurement": "viability, T/C", "setting": "compound 0.3 µM", "value": "11.7% and 12.1%"}, {"measurement": "viability, T/C", "setting": "compound 0.949 µM", "value": "1.64% and 1.58%"}, {"measurement": "viability, T/C", "setting": "compound 3 µM", "value": "0.25% and 0.32%"}, {"measurement": "IC50", "setting": "curve of compound", "value": "83.8 nM and 82.8 nM"}]}, {"smiles": "NC1CC1c1ccc(-c2cccc(O)c2)cc1", "note": "(stereo unspecified)", "values": [{"measurement": "viability, T/C", "setting": "compound 0.1 µM", "value": "94.9% and 98.4%"}, {"measurement": "viability, T/C", "setting": "compound 3.16 µM", "value": "99.9% [middle of 24 runs]"}, {"measurement": "IC50", "setting": "compound alone, run of 02/21/2022", "value": "> 10000", "unit": "nM"}]}]}
